According to PubChem BioAssay (NCI):
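Exposure lasted 48 hours, with cells grown in 96-well plates and compounds tested at five concentrations. GI50 marks 50% less growth. TGI denotes the concentration required for complete inhibition of growth.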

What was measured:
Experiment in all cases: growth of human tumour cells (NCI), 48 h
K-562 leukemia = tested on: K-562 leukemia
CCRF-CEM leukemia = tested on: CCRF-CEM leukemia
NCI/ADR-RES ovarian = tested on: NCI/ADR-RES ovarian
HCT-116 colon = tested on: HCT-116 colon
A549 NSCLC = tested on: A549 NSCLC
M14 melanoma = tested on: M14 melanoma
RXF 393 renal = tested on: RXF 393 renal
PC-3 prostate = tested on: PC-3 prostate
NCI-H23 lung = tested on: NCI-H23 lung
SNB-75 CNS = tested on: SNB-75 CNS
COLO 205 colon = tested on: COLO 205 colon
MDA-MB-231 breast = tested on: MDA-MB-231 breast
SNB-19 CNS = tested on: SNB-19 CNS
HT29 colon = tested on: HT29 colon
OVCAR-5 ovarian = tested on: OVCAR-5 ovarian
SR leukemia = tested on: SR leukemia

Q: What does the source list for NC(=O)c1[nH]cnc1/N=N/SCC(N)C(=O)O (stereo not drawn)?
A: TGI (K-562 leukemia): > 100 µM; TGI (CCRF-CEM leukemia): > 100 µM; TGI (NCI/ADR-RES ovarian): > 100 µM; TGI (HCT-116 colon): > 100 µM; TGI (A549 NSCLC): > 100 µM; TGI (M14 melanoma): > 100 µM; TGI (RXF 393 renal): > 100 µM; TGI (PC-3 prostate): > 100 µM; TGI (NCI-H23 lung): > 100 µM; TGI (SNB-75 CNS): > 100 µM; TGI (COLO 205 colon): > 100 µM; TGI (MDA-MB-231 breast): > 54.9 µM; TGI (SNB-19 CNS): > 100 µM; TGI (HT29 colon): > 100 µM; TGI (OVCAR-5 ovarian): > 100 µM

Q: COc1ccc([C@@]23OC[C@@H]4[C@@H](OC[C@@H]42)c2cc(OC)c(OC)cc23)cc1OC was tested. Which TGI (K-562 leukemia) did it give?
A: > 100 µM

Q: And the TGI (NCI/ADR-RES ovarian)?
A: > 100 µM

Q: And the TGI (HCT-116 colon)?
A: > 100 µM

Q: What about the TGI (A549 NSCLC) of the same molecule?
A: > 100 µM

Q: And the TGI (M14 melanoma)?
A: > 100 µM

Q: What about the TGI (RXF 393 renal) of the same molecule?
A: > 100 µM

Q: What about the TGI (PC-3 prostate) of the same molecule?
A: > 100 µM

Q: And the TGI (NCI-H23 lung)?
A: > 100 µM

Q: And the TGI (SNB-75 CNS)?
A: > 100 µM

Q: And the TGI (COLO 205 colon)?
A: > 100 µM

Q: What about the TGI (MDA-MB-231 breast) of the same molecule?
A: > 100 µM

Q: And the TGI (SNB-19 CNS)?
A: > 100 µM

Q: What about the TGI (OVCAR-5 ovarian) of the same molecule?
A: > 100 µM

Q: What about the TGI (SR leukemia) of the same molecule?
A: > 100 µM

Q: With Cc1cc(OCC(=O)N/N=C/C(Br)=C/c2ccccc2)nc(SCC(=O)N/N=C/C(Br)=C/c2ccccc2)n1 as the molecule, how does the TGI (K-562 leukemia) read?
A: > 100 µM

Q: What about the TGI (CCRF-CEM leukemia) of the same molecule?
A: > 100 µM

Q: And the TGI (NCI/ADR-RES ovarian)?
A: > 100 µM

Q: What about the TGI (HCT-116 colon) of the same molecule?
A: > 100 µM

Q: And the TGI (M14 melanoma)?
A: > 100 µM

Q: What about the TGI (RXF 393 renal) of the same molecule?
A: > 100 µM

Q: What about the TGI (PC-3 prostate) of the same molecule?
A: > 100 µM

Q: What about the TGI (NCI-H23 lung) of the same molecule?
A: > 100 µM

Q: And the TGI (COLO 205 colon)?
A: > 100 µM

Q: And the TGI (SNB-19 CNS)?
A: > 100 µM

Q: What about the TGI (HT29 colon) of the same molecule?
A: > 100 µM

Q: And the TGI (OVCAR-5 ovarian)?
A: > 100 µM

Q: What about the TGI (SR leukemia) of the same molecule?
A: > 100 µM

Q: Which TGI (CCRF-CEM leukemia) does the source give for O=C(O)CCCOc1cc(-c2ccccc2F)nc2cc3c(cc12)OCO3 here?
A: 9.86 µM

Q: And the TGI (NCI/ADR-RES ovarian)?
A: > 100 µM

Q: And the GI50 (HCT-116 colon)?
A: 3.99 µM

Q: And the TGI (HCT-116 colon)?
A: > 100 µM

Q: And the TGI (A549 NSCLC)?
A: > 100 µM

Q: What about the TGI (M14 melanoma) of the same molecule?
A: > 100 µM

Q: And the GI50 (RXF 393 renal)?
A: 7.68 µM

Q: And the TGI (RXF 393 renal)?
A: > 100 µM

Q: What about the TGI (PC-3 prostate) of the same molecule?
A: > 100 µM

Q: And the TGI (NCI-H23 lung)?
A: > 100 µM

Q: And the TGI (SNB-75 CNS)?
A: > 100 µM

Q: And the TGI (COLO 205 colon)?
A: 27.4 µM

Q: What about the TGI (MDA-MB-231 breast) of the same molecule?
A: > 100 µM

Q: What about the TGI (HT29 colon) of the same molecule?
A: > 100 µM

Q: What about the TGI (OVCAR-5 ovarian) of the same molecule?
A: > 100 µM

Q: And the TGI (SR leukemia)?
A: > 100 µM

Q: For Cc1ccc(S(=O)(=O)Oc2nc3ccccc3nc2N(S(=O)(=O)c2ccc(C)cc2)S(=O)(=O)c2ccc(C)cc2)cc1, which TGI (CCRF-CEM leukemia) is on record?
A: > 100 µM

Q: And the TGI (NCI/ADR-RES ovarian)?
A: > 100 µM

Q: What about the TGI (HCT-116 colon) of the same molecule?
A: > 100 µM

Q: And the TGI (A549 NSCLC)?
A: > 100 µM

Q: And the TGI (M14 melanoma)?
A: > 100 µM

Q: What about the TGI (RXF 393 renal) of the same molecule?
A: > 100 µM

Q: What about the TGI (PC-3 prostate) of the same molecule?
A: > 100 µM

Q: What about the TGI (NCI-H23 lung) of the same molecule?
A: > 100 µM

Q: What about the TGI (SNB-75 CNS) of the same molecule?
A: > 100 µM

Q: And the TGI (COLO 205 colon)?
A: > 100 µM

Q: What about the TGI (MDA-MB-231 breast) of the same molecule?
A: > 100 µM

Q: What about the TGI (SNB-19 CNS) of the same molecule?
A: > 100 µM

Q: What about the TGI (HT29 colon) of the same molecule?
A: > 100 µM

Q: What about the TGI (OVCAR-5 ovarian) of the same molecule?
A: > 100 µM

Q: What does the source list for Cc1ccc(S(=O)(=O)N2CCCC2C(=O)O[C@H]2CC[C@H]3CC=C[C@H]32)cc1 (stereo partly drawn)?
A: TGI (K-562 leukemia): 78.9 µM; TGI (CCRF-CEM leukemia): > 100 µM; TGI (NCI/ADR-RES ovarian): 77.2 µM; TGI (HCT-116 colon): > 31.6 µM; TGI (A549 NSCLC): > 31.6 µM; TGI (M14 melanoma): > 100 µM; TGI (PC-3 prostate): > 100 µM; TGI (NCI-H23 lung): > 100 µM; TGI (SNB-75 CNS): > 100 µM; TGI (MDA-MB-231 breast): > 100 µM; TGI (SNB-19 CNS): > 100 µM; TGI (HT29 colon): > 100 µM; TGI (OVCAR-5 ovarian): > 100 µM; TGI (SR leukemia): > 69.6 µM

Q: How did the TGI (K-562 leukemia) turn out when Cc1c2c(n(CCN(C)C)c1C)NN=C(C#N)S2(=O)=O was run?
A: > 100 µM

Q: And the TGI (NCI/ADR-RES ovarian)?
A: > 100 µM

Q: What about the TGI (HCT-116 colon) of the same molecule?
A: > 100 µM

Q: What about the TGI (A549 NSCLC) of the same molecule?
A: > 100 µM

Q: What about the TGI (M14 melanoma) of the same molecule?
A: > 100 µM

Q: And the TGI (PC-3 prostate)?
A: > 100 µM

Q: What about the TGI (NCI-H23 lung) of the same molecule?
A: > 100 µM

Q: And the TGI (SNB-75 CNS)?
A: > 100 µM

Q: And the TGI (COLO 205 colon)?
A: > 100 µM

Q: And the TGI (MDA-MB-231 breast)?
A: > 100 µM

Q: And the TGI (SNB-19 CNS)?
A: > 100 µM

Q: What about the TGI (HT29 colon) of the same molecule?
A: > 100 µM

Q: What about the TGI (OVCAR-5 ovarian) of the same molecule?
A: > 100 µM

Q: What does the source list for N#CC(Cc1ccccc1Br)N(CCC1=CCCCC1)C(c1ccccc1)c1ccccc1 (stereo not drawn)?
A: TGI (K-562 leukemia): > 100 µM; TGI (NCI/ADR-RES ovarian): > 100 µM; TGI (HCT-116 colon): > 100 µM; TGI (A549 NSCLC): > 100 µM; TGI (M14 melanoma): > 100 µM; TGI (RXF 393 renal): > 100 µM; TGI (PC-3 prostate): > 100 µM; TGI (NCI-H23 lung): > 100 µM; TGI (SNB-75 CNS): > 100 µM; TGI (COLO 205 colon): > 100 µM; TGI (MDA-MB-231 breast): > 100 µM; TGI (SNB-19 CNS): > 100 µM; TGI (HT29 colon): > 100 µM; TGI (OVCAR-5 ovarian): > 100 µM
